# “Also recorded” adds a separate entry of the source. Square brackets hold non-standard residues; d marks the D form. Ends that are not written are not given here. * marks the point of attachment. Sta = CC(C)C[C@H](N)[C@@H](O)CC(=O)O; Isovaleryl = CC(C)CC(=O)*
# Columns and labels:
# MMP-3 [1] = target: MMP-3 (Homo sapiens, UniProt P08254); test: activation or inhibition of MMP-3 by substances; assay type: biochemical; design: inhibition (MMP-3): dose or concentration left out as unconfirmed; conditions: for inhibition at 10 µM: with 10 μM
# Sequence of MMP-3 (Homo sapiens, UniProt P08254) (P08254 100-477): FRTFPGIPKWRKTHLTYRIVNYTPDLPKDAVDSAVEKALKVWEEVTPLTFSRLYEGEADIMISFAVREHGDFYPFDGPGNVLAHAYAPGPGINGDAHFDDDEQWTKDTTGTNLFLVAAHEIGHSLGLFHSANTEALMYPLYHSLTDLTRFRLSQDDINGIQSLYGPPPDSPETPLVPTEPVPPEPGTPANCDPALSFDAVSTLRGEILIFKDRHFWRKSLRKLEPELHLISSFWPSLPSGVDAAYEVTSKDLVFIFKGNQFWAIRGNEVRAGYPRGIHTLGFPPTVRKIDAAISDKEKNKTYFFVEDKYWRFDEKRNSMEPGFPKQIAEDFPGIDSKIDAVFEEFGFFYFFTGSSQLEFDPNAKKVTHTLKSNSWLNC
# MMP-3 [2] = test: cleavage of human GH by MMP-3, SDS-PAGE, with or without protease inhibitors; assay type: biochemical; conditions: for influence on GH cleavage by MMP-3: inhibitor added in place of phenanthroline, concentration not given
# Description: (§1) Human GH (SIGMA S-4776) was incubated with the recombinant catalytic domain of MMP-3 or with the activated full-length enzyme MMP-3 (EC 3.4.24.17) at a molar ratio of 50:1 at 37° C. overnight. 100 mM Tris-HCl, pH 7.5/100 mM NaCl/10 mM CaCl2/0.05% (w/v) Brij 35 served as incubation buffer. The following samples served as a control:
# 1. GH incubated with the same volume of buffer instead of MMP-3,
# 2. GH incubated with MMP-3 in the presence of 1 mM 1,10-phenanthroline (SIGMA P-9375) as MMP inhibitor.
# (§2) The reaction is stopped by the addition of ¼ volume of 5 times reducing Laemmli buffer and incubation at 90° C. for 4 minutes. The samples were subsequently separated on a 15% SDS polyacrylamide gel according to a generally known method. The proteins were prepared by means of coomassie or silver staining.
# MMP-9 = MMP-9 (Homo sapiens, UniProt P14780); test: cleavage of human GH by MMP-9, SDS-PAGE; assay type: biochemical; conditions: activated MMP-9; long incubation periods, different enzyme concentrations
# Sequence of MMP-9 (P14780 107-707 limits assumed): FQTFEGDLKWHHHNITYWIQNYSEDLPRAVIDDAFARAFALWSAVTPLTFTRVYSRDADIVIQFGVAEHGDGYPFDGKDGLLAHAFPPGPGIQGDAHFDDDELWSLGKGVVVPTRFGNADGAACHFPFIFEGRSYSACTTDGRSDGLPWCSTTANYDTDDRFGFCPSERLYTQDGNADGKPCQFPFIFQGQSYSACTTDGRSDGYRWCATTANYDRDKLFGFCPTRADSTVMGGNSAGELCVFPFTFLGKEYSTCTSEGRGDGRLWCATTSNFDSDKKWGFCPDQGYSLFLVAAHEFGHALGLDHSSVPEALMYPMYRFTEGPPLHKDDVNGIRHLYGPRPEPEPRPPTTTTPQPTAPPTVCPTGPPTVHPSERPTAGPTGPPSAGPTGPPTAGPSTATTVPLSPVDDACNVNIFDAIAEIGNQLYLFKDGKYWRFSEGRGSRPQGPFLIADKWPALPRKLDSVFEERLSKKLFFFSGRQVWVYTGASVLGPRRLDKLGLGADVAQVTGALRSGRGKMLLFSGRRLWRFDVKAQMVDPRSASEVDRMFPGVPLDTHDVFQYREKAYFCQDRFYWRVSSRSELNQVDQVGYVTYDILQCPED
# Description: It was tested in an informing preliminary test whether MMP-9 can cleave human GH in vitro. As shown in Example 2, GH was in this case incubated with activated MMP-9 and subjected to PAA gel electrophoresis. […]
# as §1, §2
# (§3) In accordance with the method shown in Example 2, other human MMPs were also tested for checking the specificity of the GH cleavage by MMP-3.
# MMP-8 = MMP-8 (Homo sapiens, UniProt P22894); test: cleavage of human GH by MMP-8, SDS-PAGE; assay type: biochemical; conditions: method of Example 2
# Sequence of MMP-8 (P22894 101-467): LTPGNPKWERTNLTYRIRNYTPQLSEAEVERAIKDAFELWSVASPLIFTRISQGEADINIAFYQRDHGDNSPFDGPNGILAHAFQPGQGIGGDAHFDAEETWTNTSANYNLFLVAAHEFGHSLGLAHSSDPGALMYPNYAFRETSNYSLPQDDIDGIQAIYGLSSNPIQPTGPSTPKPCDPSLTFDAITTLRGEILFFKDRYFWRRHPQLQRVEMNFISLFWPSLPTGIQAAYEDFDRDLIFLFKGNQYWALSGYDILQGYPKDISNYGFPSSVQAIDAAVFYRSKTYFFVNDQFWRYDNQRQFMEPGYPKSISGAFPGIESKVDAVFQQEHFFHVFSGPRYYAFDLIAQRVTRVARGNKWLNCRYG
# Description: as §1, §2, §3
# MMP-14 = MMP-14 (Homo sapiens, UniProt P50281); test: cleavage of human GH by MMP-14, SDS-PAGE; assay type: biochemical; conditions: method of Example 2
# Description: as §1, §2, §3
# MMP-2 = target: T1, MMP-2 (Homo sapiens, UniProt P08253); test: cleavage of human GH by MMP-2; assay type: biochemical
# T1 sequence (P08253 110-660): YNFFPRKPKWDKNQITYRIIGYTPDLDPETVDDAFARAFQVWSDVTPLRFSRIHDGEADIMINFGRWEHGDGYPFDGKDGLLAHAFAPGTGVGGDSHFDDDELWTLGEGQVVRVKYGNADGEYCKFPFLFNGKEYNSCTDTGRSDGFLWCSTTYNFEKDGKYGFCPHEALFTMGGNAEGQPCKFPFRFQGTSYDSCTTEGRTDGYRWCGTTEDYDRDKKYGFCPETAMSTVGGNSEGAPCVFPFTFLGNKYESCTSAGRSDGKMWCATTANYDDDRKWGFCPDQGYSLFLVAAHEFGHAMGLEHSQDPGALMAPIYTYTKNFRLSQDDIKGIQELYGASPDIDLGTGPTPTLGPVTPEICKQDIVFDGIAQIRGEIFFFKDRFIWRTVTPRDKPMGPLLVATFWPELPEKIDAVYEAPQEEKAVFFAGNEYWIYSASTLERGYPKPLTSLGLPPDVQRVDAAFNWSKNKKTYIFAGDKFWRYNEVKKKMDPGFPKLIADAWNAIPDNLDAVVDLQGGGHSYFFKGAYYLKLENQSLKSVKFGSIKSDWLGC
# [3] = test system: Human microvascular endothelial cells (HUVEC); test: proliferation of human microvascular endothelial cells (cell number, Coulter Counter); assay type: cell-based; conditions: 24 hours
# Description: Human microvascular endothelial cells (HUVEC) of the 3rd passage were kindly provided by Dr. Jurgen Salvetter (Leipzig University). These cells were prepared according to the information furnished by Norman and Karasek (49). HUVEC were used up to the 9th passage for the proliferation experiments. HUVEC were tested up to confluence in RPMI 1640 medium with additions of 10% (v/v) tested endotoxin-deficient fetal calf serum (Biochrom), 2 mM L-glutamine (GIBCO), 25 μg/ml endothelial cell growth supplement (SIGMA), 50 μg/ml streptomycin plus 50 units/ml penicillin (Life Technologies). The confluent cells were harvested by means of 5% trypsin/0.2% EDTA (BIOCHROM) at 37° C. for 5 minutes. A suspension of 10,000 cells in RPMI 1640 medium plus 2% (v/v) tested endotoxin-deficient fetal calf serum (Biochrom), 2 mM L-glutamine (GIBCO), 50 μg/ml streptomycin plus 50 units/ml penicillin (Life Technologies) were transferred to 24-well plates coated with 30 μg/ml type I collagen from calf skin (IBFB). […] The cells were washed with the same medium after 24 hours of incubation and removed using trypsin/EDTA and the cell number was determined in a Coulter Counter. […]
molecule,measurement,setting,value
"O=c1[nH]c(=O)n(CC(S)CS)c2ccccc12 (racemic) [(R,S)-1-(2′,3′-dimercapto-prop-1′-yl)quinazoline-2,4(1H,3H)-dione]",inhibition at 4 µM,MMP-3 [1]; with 4.0 μM,75%
"O=c1c2ccccc2nc2n1CC(CS)S2 (racemic) [(R,S)-2-mercaptomethyl-2,3-dihydro-thiazolo[2,3-b]quinazoline-5-one]",inhibition at 10 µM,MMP-3 [1],50%
"CC1(CS)Cn2c(nc3ccccc3c2=O)S1 (racemic) [(R,S)-2-mercaptomethyl-2-methyl-2,3-dihydro-thiazolo[2,3-b]quinazoline-5-one]",inhibition (MMP-3),MMP-3 [1],60%
"O=c1c2ccc(Cl)cc2nc2n1CC(CS)S2 (racemic) [(R,S)-8-chloro-2-mercaptomethyl-2,3-dihydro-thiazolo[2,3-b]quinazoline-5-one]",inhibition at 10 µM,MMP-3 [1],80%
"CC(C)C[C@H](NC(=O)[C@H]1O[C@@H]1C(=O)O)C(=O)NCCCCN=C(N)N (relative stereo) [E-64, trans-epoxysuccinyl-L-leucylamido-(4-guanidino)butane]",influence on GH cleavage by MMP-3,MMP-3 [2],no influence
"O=S1(=O)NC(NCCS)=Nc2ccccc21 [3-(2′-mercaptoethylamino)-2H-1,2,4-benzothiadiazine-1,1-dioxide]",activation of MMP-3,MMP-3 [1],about 20%
"Cn1c(=O)n(CCCS)c(=O)c2ccccc21 [3-(3-mercaptopropyl)-1-methyl-(1H,3H)quinazoline-2,4-dione]",activation of MMP-3,MMP-3 [1],about 20%
"c1cnc2c(c1)ccc1cccnc12 [phenanthroline, 1,10-phenanthroline]",GH cleavage by MMP-3 in the presence of inhibitor,"MMP-3 [2]; 1 mM inhibitor, GH:MMP-3 50:1, 37° C. overnight, pH 7.5",not cleaved
"GH: Human GH, 22 kDa peptide hormone composed of a single polypeptide chain (SIGMA S-4776)",cleavage of GH by MMP-3,"MMP-3 [2]; molar ratio 50:1, 37° C. overnight, pH 7.5",cleaved by MMP-3 into two fragments of 16 kDa and 6 kDa; also recorded: cleaves GH into the typical 16 kDa fragment
same,cleavage of GH by MMP-9,MMP-9,not possible to prove cleavage; also recorded: no degrading effect
same,cleavage of GH by MMP-8,MMP-8,no degrading effect
same,cleavage of GH by MMP-14,MMP-14,no degrading effect
same,cleavage of GH by MMP-2,MMP-2,"no, or only minor, degradative effects"
same,proliferation of HUVEC,[3]; 40 ng/ml,marked proliferative effect
Isovaleryl-VV[Sta]A[Sta] [pepstatin A],influence on GH cleavage by MMP-3,MMP-3 [2],no influence
"bFGF: human recombinant bFGF (BIOCHROM), positive control [reference compound]",proliferation of HUVEC,[3]; 20 ng/ml,stimulates the proliferation
